“And” between values parts separate entries of the source, which are not always exact repeats. Equal entries are not always repeated.
Columns and labels:
[1] = Determination of absolute bioavailability in Beagle dogs (oral vs intravenous, plasma LC-MS/MS); assay type: in vivo; conditions: dog, male Beagle dogs, oral powder in capsules 3 mg/kg vs intravenous bolus 1, 3 and 10 mg/kg
From the text: Protocol for Determination of Absolute Bioavailability
The study used male Beagle dogs, aged between 2 to 4 years old, weighing between 8 to 12 kg, and kept in food control and disposal of water ad libitum during the study.
The dogs were shaving in the radial portion of the front paws, performing aseptic on site with the aid of moistened gauze with 70% alcohol.
Entered the 21G catheter (one in each paw in the intravenous administration protocol and a single paw in the oral administration protocol) in order to access the cephalic vein.
The blood samples were collected from animals depending on the established sampling times by taking 1.5 mL of blood using a 3 mL syringe. The samples were transferred to heparinized tube collection.
c) Route of Administration
The administration of the study compounds was made orally and intravenously.
The intravenous administration of the compounds was carried out in bolus, and has through one of the cephalic veins of dogs. Concentrations were administered 1 mg/kg; 3 mg/kg and 10 mg/kg in one, on different days.
The oral administration of the drug was provided as a powder in capsules at the dose of 3 mg/kg, which were all completely ingested by dogs.
For the intravenous administration, the blood samples (1.5 ml) were collected in the following predetermined time intervals: 0, 0.033, 0.083, 0.17, 0.25, 0.33, 0 5; 1; 2; 3; 4; 6; 8; 12 and 24 hours.
For the oral administration, the blood samples (1.5 ml) were collected in the following predetermined time intervals: 0, 0.33, 0.67, 1, 1.5, 2, 3, 4, and 6, 8, 12 and 24 hours.
The compounds tested are II, IV, VI, and XI; described in TABLE 1.
The heparinized tubes collections were placed in a centrifuge and were processed for 10 minutes at 2500 rpm per minute. The plasma was separated and put into other tubes. The plasma was analyzed by Liquid chromatography-tandem mass spectrometry (LC-MS/MS).

Guanylate Cyclase-C = molecular target: T1, Guanylate Cyclase-C (Homo sapiens, UniProt P25092); assay: Stimulation of guanylate cyclase-C induced by the toxin STa in T84 cells (cGMP accumulation); assay type: cell-based; conditions: for inhibition at 50 µM: T84, test compound 50 μM vs STa (1 μM) group, read-out: % of inhibition (Compound x STa); for cGMP, pmol/10 min/mg: test compound 50 μM, 10 min pre-incubation, then STa 1 μM for 10 min, T84 cells, mean ± SEM
T1 construct: host or cells: T84 cells
Method: Protocol for the Stimulation of Guanylate Cyclase-C Induced by the Toxin STa in T84 Cells
Cells from the T84 line (ATCC CCL-248) are subculture according to supplier's instructions. Briefly, after washing the culture flask (75 cm^2) using 3 mL of 0.25% Trypsin solution (w/v) and 0.53 mM EDTA solution to remove the traces of serum, the same volume of trypsin is added to each bottle, and cells are observed under a microscope until detachment of the cellular layer (usually 8-10 minutes).
Preparation of assay plates (12-well plates) follows after adding 8 mL of culture medium (DMEM-F12 supplemented with 10% fetal bovine serum and penicillin-streptomycin (50 IU/mL:50 μg/mL) and centrifugation of the cell homogenate at 2000 rpm for 5 minutes (at 25° C.).
With the aid of a 1 mL pipet connected to a vacuum pump, the supernatant is aspirated and the cells resuspended with culture medium (with necessary volume to maintain the ratio of 1:4, i.e. 1 culture flask originates 4 12-well plates). After homogenization of the cells, with an aid of a pipette, it is added 2 mL of the cell suspension to each well of the plate. The growth occurs in an incubator under controlled conditions (37° C., 5% CO2 atmosphere) until confluence of each well (typically 8-10 days).
Initially, the culture medium is aspirated using a 1 mL pipette connected to a vacuum pump and the cells are washed at least 3 times with 0.5 mL of a Dulbecco Phosphate Buffered Saline (DPBS; 37° C.) using a 1 mL pipette attached to one the vacuum pump. In the sequence, 0.5 mL of DPBS is added in the presence and/or absence of 1-metil-3-isobutyl xanthine (1 mM), dimethylsulfoxide (0.1% v/v) and the test compound and incubated for 10 minutes in an oven (37° C., 5% CO2 atmosphere).
After the incubation period, the cells are stimulated with STa toxin (1 μM, 5 μL) and incubated in an incubator (37° C., 5% CO2 atmosphere) for 10 minutes. After the stimulation period, the volume of the supernatant is aspirated using a 1 mL pipette connected to a vacuum pump and the cGMP is extracted by the addition of a hydrochloric acid solution 0.1 M (0.3 mL, using a pipette), pH 4, under constant stirring (speed 4) in a shaker type “rotator” (Lab-line Instruments, model number 4625), for 20 minutes. After the extraction period, the volume of each well is centrifuged (15000 rpm, 5 minutes, 25° C.) and an aliquot of the supernatant (0.3 mL) is quickly stored in a freezer at −20° C. for the subsequent quantification of the content of cGMP by the immunoassay method developed and described by HORTON et al. (1992) [Horton, J. K.; Martin, R. C.; Kalinka, S.; Cushing, A.; Kitcher, J. P.; O'Sullivan, M. J.; Baxendale, P. M., “Enzime immunoassays for the estimation of adenosine 3′,5′ cyclic monophosphate and guanosine 3′,5′ cyclic monophosphate in biological fluids”. J Immunol Methods 1992, 155:31-40].
The protein precipitate or “pellets” are digested directly by the addition of 0.5 mL of a 0.1 M sodium hydroxide solution, under constant agitation in a shaker type “rotator” (speed 7), for 30 minutes. Posteriorly, this protein fraction is used in the tests to determine proteins, employing a method developed by BRADFORD (1976). [M. M. BRADFORD, “A rapid and sensitive method for the quantitation of microgram quantities of protein utilizing the principle of protein-dye binding”. Analytical Biochemistry, 1976, 72:248-254].

T1 sequence (P25092 24-1073): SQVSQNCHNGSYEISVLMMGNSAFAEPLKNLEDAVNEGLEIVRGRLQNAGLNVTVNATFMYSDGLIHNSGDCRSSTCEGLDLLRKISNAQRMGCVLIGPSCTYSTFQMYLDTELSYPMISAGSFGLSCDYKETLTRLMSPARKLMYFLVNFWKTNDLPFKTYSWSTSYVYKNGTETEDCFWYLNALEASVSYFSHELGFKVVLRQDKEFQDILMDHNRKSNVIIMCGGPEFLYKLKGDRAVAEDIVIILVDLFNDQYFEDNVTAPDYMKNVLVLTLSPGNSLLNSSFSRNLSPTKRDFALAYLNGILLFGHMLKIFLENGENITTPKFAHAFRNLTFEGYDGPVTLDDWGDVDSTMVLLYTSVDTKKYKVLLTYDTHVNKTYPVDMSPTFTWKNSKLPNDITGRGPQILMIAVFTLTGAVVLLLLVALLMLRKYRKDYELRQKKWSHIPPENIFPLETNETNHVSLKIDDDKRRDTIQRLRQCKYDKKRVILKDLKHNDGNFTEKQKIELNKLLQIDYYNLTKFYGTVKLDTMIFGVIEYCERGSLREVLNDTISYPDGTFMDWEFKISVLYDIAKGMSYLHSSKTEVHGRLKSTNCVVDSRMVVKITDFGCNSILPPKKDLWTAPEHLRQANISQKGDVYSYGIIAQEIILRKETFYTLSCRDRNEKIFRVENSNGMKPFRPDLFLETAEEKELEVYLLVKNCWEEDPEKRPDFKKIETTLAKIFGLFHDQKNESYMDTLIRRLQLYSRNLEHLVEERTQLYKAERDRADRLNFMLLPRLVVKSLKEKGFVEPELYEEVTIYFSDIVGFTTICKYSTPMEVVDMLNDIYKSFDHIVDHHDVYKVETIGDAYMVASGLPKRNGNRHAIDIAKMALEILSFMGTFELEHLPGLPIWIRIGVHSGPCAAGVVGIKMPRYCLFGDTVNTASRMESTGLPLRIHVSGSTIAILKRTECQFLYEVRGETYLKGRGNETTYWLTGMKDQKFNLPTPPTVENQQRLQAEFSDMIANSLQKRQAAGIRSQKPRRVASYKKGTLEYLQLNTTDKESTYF

SMILES | bioavailability [1] [%] | inhibition at 50 µM (Guanylate Cyclase-C; cGMP accumulation in T84 cells) [%] | cGMP, pmol/10 min/mg (Guanylate Cyclase-C) | melting point [°C] | % of inhibition (Compound x STa) (Guanylate Cyclase-C; test compound 50 μM vs STa (1 μM) group, cGMP accumulation in T84 cells)
Cn1c2c(c(=O)n(C)c1=O)C(c1ccc3nsnc3c1)C1=C(N2)c2ccccc2C1=O (stereo not shown) [Compound XI, 5-(2,1,3-benzothiadiazol-5-yl)-1,3-dimethyl-5,11-dihydro-1H-indeno-[2′,1′:5,6]pyrido[2,3-d]pyrimidine-2,4,6-trione] | 0.35 | ~70 | 171.30 ± 31.68 pmol/10 min/mg | – | –
CCn1c2c(c(=O)n(C)c1=O)C(c1cc(F)cc(C(F)(F)F)c1)C1=C(N2)c2ccccc2C1=O (stereo not shown) [Compound IV, 5-(3-fluoro-5-trifluoromethylphenyl)-1-ethyl-3-methyl-5,11-dihydro-1H-indeno-[2′,1′:5,6]pyrido[2,3-d]pyrimidine-2,4,6-trione] | 0.17 | ~86 | 146.80 ± 22.94 pmol/10 min/mg | 177 | –
Cn1c2c(c(=O)n(C)c1=S)C(c1ccc3nsnc3c1)C1=C(N2)c2ccccc2C1=O (stereo not shown) [Compound XII, 5-(2,1,3-benzothiadiazol-5-yl)-1,3-dimethyl-5,11-dihydro-1H-indeno-[2′,1′:5,6]pyrido[2,3-d]pyrimidine-2-thioxo-4,6-dione] | – | ~64 | 201.50 ± 23.51 pmol/10 min/mg | 362 | –
CCn1c2c(c(=O)n(C)c1=O)C(c1cc(C(F)(F)F)cc(C(F)(F)F)c1)C1=C(N2)c2ccccc2C1=O (stereo not shown) [Compound VI, 5-(3,5-bistrifluoromethylphenyl)-1-ethyl-3-methyl-5,11-dihydro-1H-indeno-[2′,1′:5,6]pyrido[2,3-d]pyrimidine-2,4,6-trione] | 0.82 | ~97 | 22.83 ± 3.30 pmol/10 min/mg | 166 | –
Cn1c2c(c(=O)n(C)c1=O)C(c1cccc3nsnc13)C1=C(N2)c2ccccc2C1=O (stereo not shown) [Compound X, 5-(2,1,3-benzothiadiazol-4-yl)-1,3-dimethyl-5,11-dihydro-1H-indeno-[2′,1′:5,6]pyrido[2,3-d]pyrimidine-2,4,6-trione] | – | ~36 | 668.40 ± 75.46 pmol/10 min/mg | – | –
Cn1c2c(c(=O)n(C)c1=S)C(c1csc(C(F)(F)F)c1)C1=C(N2)c2ccccc2C1=O (stereo not shown) [Compound II] | 0.16 | ~94 | 57.50 ± 3.16 pmol/10 min/mg | 178 | –
Cn1c2c(c(=O)n(C)c1=O)C(c1cccc3c1OCO3)C1=C(N2)c2ccccc2C1=O (stereo not shown) [Compound VII, 5-(1,3-benzodioxol-4-yl)-1,3-dimethyl-5,11-dihydro-1H-indeno-[2′,1′:5,6]pyrido[2,3-d]pyrimidine-2,4,6-trione] | – | ~12 | 297.30 ± 39.06 pmol/10 min/mg | – | –
Cn1c2c(c(=O)n(C)c1=S)C(c1cccc3c1OCO3)C1=C(N2)c2ccccc2C1=O (stereo not shown) [Compound VIII, 5-(1,3-benzodioxol-4-yl)-1,3-dimethyl-5,11-dihydro-1H-indeno-[2′,1′:5,6]pyrido[2,3-d]pyrimidine-2-thioxo-4,6-dione] | – | ~66 | 350.70 ± 35.80 pmol/10 min/mg | 310 | –
Cn1c2c(c(=O)n(C)c1=O)C(c1ccc3c(c1)OCO3)C1=C(N2)c2ccccc2C1=O (stereo not shown) [Compound IX, 5-(1,3-benzodioxol-5-yl)-1,3-dimethyl-5,11-dihydro-1H-indeno-[2′,1′:5,6]pyrido[2,3-d]pyrimidine-2,4,6-trione] | – | – | 703.50 ± 43.11 pmol/10 min/mg | – | –
Cn1c2c(c(=O)n(C)c1=O)C(c1cc(C(F)(F)F)cc(C(F)(F)F)c1)C1=C(N2)c2ccccc2C1=O (stereo not shown) [FPIPP, reference compound] | – | ~94 | 53.53 ± 6.22 pmol/10 min/mg and 74.83 ± 13.26 pmol/10 min/mg and 56.25 ± 13.61 pmol/10 min/mg and 81.00 ± 14.38 pmol/10 min/mg | – | ~86% and ~83% and ~87%
Cn1c2c(c(=O)n(C)c1=S)C(c1cc(C(F)(F)F)cc(C(F)(F)F)c1)C1=C(N2)c2ccccc2C1=O (stereo not shown) [Compound V, 5-(3,5-bistrifluoromethylphenyl)-1,3-dimethyl-5,11-dihydro-1H-indeno-[2′,1′:5,6]pyrido[2,3-d]pyrimidine-2-thioxo-4,6-dione] | – | ~62 | – | 314 | –
Cn1c2c(c(=O)n(C)c1=S)C(c1cc(F)cc(C(F)(F)F)c1)C1=C(N2)c2ccccc2C1=O (stereo not shown) [Compound III, 5-(3-fluoro-5-trifluoromethylphenyl)-1,3-dimethyl-5,11-dihydro-1H-indeno-[2′,1′:5,6]pyrido[2,3-d]pyrimidine-2-thioxo-4,6-dione] | – | ~64 | 201.50 ± 44.93 pmol/10 min/mg | 313 | –
Cn1c2c(c(=O)n(C)c1=O)C(c1csc(C(F)(F)F)c1)C1=C(N2)c2ccccc2C1=O (stereo not shown) [Compound I] | – | ~62 | 210.70 ± 6.11 pmol/10 min/mg | 265 | –

Reference: patent US10822333B2, “Pyridopyrimidines derivatives compounds” (BIOLAB SANUS FARMACEUTICA LTDA, priority 2014, dated 2020)
